From patent US20070172957A1, “Methods of identifying anti-inflammatory macrolides” (TAISHO PHARMACEUTICAL CO., LTD., priority 2004, published 2007)

Tested on: A549 cells
Assay: A549 microarray comparing macrolides with arachidonic acid pathway inhibitors, with IL-1β stimulation (Appendix C, Tables 6-9), and correlation analysis
Format: cell-based
Conditions: for Total # Differential Genes (95% confidence): A549, IL1 vs IL1 + drug, threshold 1.3, macrolides 50 μM (FMA 10 μM), triacsin C 15 μM, indomethacin and dexamethasone 100 nM
Source text: One inhibitor, triacsin C, acts on AA biosynthesis by inhibiting arachidonyl CoA synthetases, blocking the incorporation of free AA into phospholipids. Triacsin C is reasonably specific for AA compared to other fatty acids. However, triacsin C structurally resembles AA so it also may interfere with other steps in the AA pathway. Indomethacin is an inhibitor of COX1 and COX2 enzyme activities and therefore specifically blocks metabolism of AA into prostaglandins. […] It inhibits transcription of PLA2, and transcriptionally and post-transcriptionally regulates COX1 and COX2 activities. Dexamethasone has additional effects unrelated to AA through binding with the glucocorticoid receptor to glucocortcoid response elements.
A549 cells were pre-incubated overnight (17 hours) with macrolides (10 μM FMA-9045, 50 μM clarithromycin, 50 μM roxithromycin, 50 μM josamycin) and 15 μM triacsin C, and pre-incubated 2 hours with 100 nM indomethacin and 100 nM dexamethasone. All cells then were stimulated for 4 hours with IL-1β, because the activation of PLA2 and downstream signaling events generally requires an inflammatory stimulus. The various treatment conditions are shown below in Table 4. Following macrolide and inhibitor pre-treatment and IL-1 stimulation, the cells were lysed, total RNA was collected, and the poly-A+ mRNA fraction was purified. The resulting microarray data (Appendix C) were analyzed using the methods described in the Examples above.
The tables in Appendix C represent the effects of the arachidonic acid pathway inhibitors (“AA pathway inhibitors”) and the effects of the macrolides (“IL1+macrolide effects”). […] In both tables in Appendix C, the genes that meet this criterion (≧1.3 min fold change) are indicated in bold.
Quantitative analysis was done to determine how well the responses to the different AA pathway inhibitors correlated. The correlation values were assigned a p-value to provide statistical confidence to the correlation value. Correlation between experiments, across all spots showing good detection, was assessed by cosine vector angle to generate the data shown in Tables 7-9. A correlation coefficient close to one indicates strong correlation, whereas a value near zero indicates no correlation. P-values for each correlation coefficient were estimated based on a Fisher permutation test. In this test, each spot's expression ratios were randomly re-ordered across experiments and the degree of correlation between experiments was then reassessed. This was done repeatedly.

[1] = A549 cells, +IL1b +/- inhibitor

O=C(O)Cc1cc(I)c(Oc2ccc(O)c(I)c2)c(I)c1 [Triac]
min fold change, SpotID 46796 STC1 (stanniocalcin 1) [1]: 1.00
min fold change, SpotID 46950 SERPINA3 (serine (or cysteine) proteinase inhibitor, clade A, member 3) [1]: 1.00
min fold change, SpotID 46985 RIPK2 (RIP2, RICK; receptor-interacting serine-threonine kinase 2) [1]: 1.43
min fold change, SpotID 47155 TNFAIP6 (tumor necrosis factor, alpha-induced protein 6) [1]: 1.02
min fold change, SpotID 47166 SERPINA6 (serine (or cysteine) proteinase inhibitor, clade A, member 6) [1]: 1.36
min fold change, SpotID 47193 STAT3 (signal transducer and activator of transcription 3) [1]: 1.32
min fold change, SpotID 47332 SERPINB3 (serine (or cysteine) proteinase inhibitor, clade B (ovalbumin), member 3) [1]: 1.06
min fold change, SpotID 47444 TKT (transketolase (Wernicke-Korsakoff syndrome)) [1]: 1.16
min fold change, SpotID 47569 STAT3 (signal transducer and activator of transcription 3) [1]: 1.19
min fold change, SpotID 47697 TNFRSF6B (DcR3; tumor necrosis factor receptor superfamily, member 6b, decoy) [1]: 1.11
min fold change, SpotID 47698 PTPRJ (protein tyrosine phosphatase, receptor type, J) [1]: 1.11
min fold change, SpotID 47987 THBS1 (thrombospondin 1) [1]: 1.00
min fold change, SpotID 48050 RPS6KA2 (ribosomal protein S6 kinase, 90 kD, polypeptide 2) [1]: 1.12
min fold change, SpotID 48234 PTPRZ1 (PTP zeta; protein tyrosine phosphatase, receptor-type, Z polypeptide 1) [1]: 1.00
min fold change, SpotID 48239 TLN1 (talin 1) [1]: 1.34
min fold change, SpotID 48288 TRAF5 (TNF receptor-associated factor 5) [1]: 1.34
min fold change, SpotID 48359 RIPK1 (receptor (TNFRSF)-interacting serine-threonine kinase 1) [1]: 1.00
min fold change, SpotID 48392 RIPK1 (receptor (TNFRSF)-interacting serine-threonine kinase 1) [1]: 1.00
min fold change, SpotID 48395 TNFRSF7 (CD27; tumor necrosis factor receptor superfamily, member 7) [1]: 1.09
min fold change, SpotID 48485 UCP1 (uncoupling protein 1 (mitochondrial, proton carrier)) [1]: 1.15
min fold change, SpotID 48500 RPL13A (ribosomal protein L13a) [1]: 1.25
min fold change, SpotID 48594 RPS6KA2 (ribosomal protein S6 kinase, 90 kD, polypeptide 2) [1]: 1.00
min fold change, SpotID 48603 TEAD4 (TEA domain family member 4) [1]: 1.38
min fold change, SpotID 49330 TNFRSF7 (CD27; tumor necrosis factor receptor superfamily, member 7) [1]: 1.51
min fold change, SpotID 49899 WWOX (WW domain containing oxidoreductase) [1]: 1.51
min fold change, SpotID 49901 TROAP (trophinin associated protein (tastin)) [1]: 1.01
min fold change, SpotID 50379 TNFRSF6 (FAS; tumor necrosis factor receptor superfamily, member 6) [1]: 1.04
min fold change, SpotID 50428 RPLP0 (ribosomal protein, large, P0) [1]: 1.00
min fold change, SpotID 50491 TNFRSF6B (DcR3; tumor necrosis factor receptor superfamily, member 6b, decoy) [1]: 1.36
wtd means, SpotID 46796 STC1 (stanniocalcin 1) [1]: 1.05
wtd means, SpotID 46950 SERPINA3 (serine (or cysteine) proteinase inhibitor, clade A, member 3) [1]: 1.06
wtd means, SpotID 46985 RIPK2 (RIP2, RICK; receptor-interacting serine-threonine kinase 2) [1]: 1.70
wtd means, SpotID 47155 TNFAIP6 (tumor necrosis factor, alpha-induced protein 6) [1]: 1.08
wtd means, SpotID 47166 SERPINA6 (serine (or cysteine) proteinase inhibitor, clade A, member 6) [1]: 1.48
wtd means, SpotID 47193 STAT3 (signal transducer and activator of transcription 3) [1]: 1.47
wtd means, SpotID 47332 SERPINB3 (serine (or cysteine) proteinase inhibitor, clade B (ovalbumin), member 3) [1]: 1.22
wtd means, SpotID 47444 TKT (transketolase (Wernicke-Korsakoff syndrome)) [1]: 0.76
wtd means, SpotID 47569 STAT3 (signal transducer and activator of transcription 3) [1]: 1.34
wtd means, SpotID 47697 TNFRSF6B (DcR3; tumor necrosis factor receptor superfamily, member 6b, decoy) [1]: 1.24
wtd means, SpotID 47698 PTPRJ (protein tyrosine phosphatase, receptor type, J) [1]: 1.17
wtd means, SpotID 47987 THBS1 (thrombospondin 1) [1]: 0.87
wtd means, SpotID 48234 PTPRZ1 (PTP zeta; protein tyrosine phosphatase, receptor-type, Z polypeptide 1) [1]: 1.00
wtd means, SpotID 48239 TLN1 (talin 1) [1]: 1.41
wtd means, SpotID 48288 TRAF5 (TNF receptor-associated factor 5) [1]: 1.60
wtd means, SpotID 48359 RIPK1 (receptor (TNFRSF)-interacting serine-threonine kinase 1) [1]: 1.27
wtd means, SpotID 48392 RIPK1 (receptor (TNFRSF)-interacting serine-threonine kinase 1) [1]: 1.08
wtd means, SpotID 48395 TNFRSF7 (CD27; tumor necrosis factor receptor superfamily, member 7) [1]: 1.50
wtd means, SpotID 48485 UCP1 (uncoupling protein 1 (mitochondrial, proton carrier)) [1]: 1.59
wtd means, SpotID 48500 RPL13A (ribosomal protein L13a) [1]: 1.37
wtd means, SpotID 48603 TEAD4 (TEA domain family member 4) [1]: 1.65
wtd means, SpotID 49330 TNFRSF7 (CD27; tumor necrosis factor receptor superfamily, member 7) [1]: 1.73
wtd means, SpotID 49899 WWOX (WW domain containing oxidoreductase) [1]: 1.62
wtd means, SpotID 49901 TROAP (trophinin associated protein (tastin)) [1]: 0.90
wtd means, SpotID 50379 TNFRSF6 (FAS; tumor necrosis factor receptor superfamily, member 6) [1]: 1.41
wtd means, SpotID 50428 RPLP0 (ribosomal protein, large, P0) [1]: 0.84
wtd means, SpotID 50491 TNFRSF6B (DcR3; tumor necrosis factor receptor superfamily, member 6b, decoy) [1]: 1.56

C[C@@H]1C[C@H]2[C@@H]3CCC4=CC(=O)C=C[C@]4(C)[C@@]3(F)[C@@H](O)C[C@]2(C)[C@@]1(O)C(=O)CO [Dexa]
wtd means, SpotID 46796 STC1 (stanniocalcin 1) [1]: 1.41
wtd means, SpotID 46950 SERPINA3 (serine (or cysteine) proteinase inhibitor, clade A, member 3) [1]: 1.39
wtd means, SpotID 46985 RIPK2 (RIP2, RICK; receptor-interacting serine-threonine kinase 2) [1]: 1.83
wtd means, SpotID 47155 TNFAIP6 (tumor necrosis factor, alpha-induced protein 6) [1]: 1.27
wtd means, SpotID 47166 SERPINA6 (serine (or cysteine) proteinase inhibitor, clade A, member 6) [1]: 1.33
wtd means, SpotID 47444 TKT (transketolase (Wernicke-Korsakoff syndrome)) [1]: 0.83
wtd means, SpotID 47569 STAT3 (signal transducer and activator of transcription 3) [1]: 1.42
wtd means, SpotID 47698 PTPRJ (protein tyrosine phosphatase, receptor type, J) [1]: 1.38
wtd means, SpotID 47987 THBS1 (thrombospondin 1) [1]: 0.66
wtd means, SpotID 48234 PTPRZ1 (PTP zeta; protein tyrosine phosphatase, receptor-type, Z polypeptide 1) [1]: 1.00
wtd means, SpotID 48239 TLN1 (talin 1) [1]: 1.53
wtd means, SpotID 48288 TRAF5 (TNF receptor-associated factor 5) [1]: 1.42
wtd means, SpotID 48359 RIPK1 (receptor (TNFRSF)-interacting serine-threonine kinase 1) [1]: 1.61
wtd means, SpotID 48392 RIPK1 (receptor (TNFRSF)-interacting serine-threonine kinase 1) [1]: 1.62
wtd means, SpotID 48395 TNFRSF7 (CD27; tumor necrosis factor receptor superfamily, member 7) [1]: 1.53
wtd means, SpotID 48485 UCP1 (uncoupling protein 1 (mitochondrial, proton carrier)) [1]: 1.00
wtd means, SpotID 48500 RPL13A (ribosomal protein L13a) [1]: 1.65
wtd means, SpotID 48603 TEAD4 (TEA domain family member 4) [1]: 1.67
wtd means, SpotID 49330 TNFRSF7 (CD27; tumor necrosis factor receptor superfamily, member 7) [1]: 1.76
wtd means, SpotID 49899 WWOX (WW domain containing oxidoreductase) [1]: 0.76
wtd means, SpotID 49901 TROAP (trophinin associated protein (tastin)) [1]: 0.84
wtd means, SpotID 50379 TNFRSF6 (FAS; tumor necrosis factor receptor superfamily, member 6) [1]: 1.40
wtd means, SpotID 50428 RPLP0 (ribosomal protein, large, P0) [1]: 0.73
wtd means, SpotID 50491 TNFRSF6B (DcR3; tumor necrosis factor receptor superfamily, member 6b, decoy) [1]: 1.36

CCC/C=C/C/C=C/C=C/C=N/NN=O [triacsin C]
Total # Differential Genes (95% confidence): 228
FADS1 expression (A549 cells, microarray): induced

C[C@@H]1C[C@H]2[C@@H]3CCC4=CC(=O)C=C[C@]4(C)[C@@]3(F)[C@@H](O)C[C@]2(C)[C@@]1(O)C(=O)CO [dexamethasone]
Total # Differential Genes (95% confidence): 341
